# Test system: AsPC-1 cells
# Assay: Cytotoxicity test for oxaliplatin (WST-1 kit)
# Format: cell-based
# Conditions: l-OHP solutions 48 hours
# Protocol: An oxaliplatin (l-OHP) solution was prepared by dissolving oxaliplatin in a 9% sucrose solution (sucrose/distilled water) at a concentration of 8 mg/ml. The cell viability was determined using a commercially available cytotoxicity assay kit (WST-1 kit, Wako Pure Chemical Industries, Ltd., Japan).
# AsPC-1 cells (provided by Dr. Hironobu Yanagie of Research Center for Advanced Science and Technology, the University of Tokyo, Japan) cultured in RPMI 1640 medium supplemented with 10% FCS (fetal calf serum; SIGMA, USA) were treated with concentrations of l-OHP solutions [200×(1/2)^(0-10) nM] at 37° C. in 5% CO2 for 48 hours. Then, the medium was removed and a substrate (WST-1, Cell Counting Kit, Dojindo Laboratories, Japan) was added to the cells which were incubated at 37° C. in 5% CO2 for 2 hours to develop the colored product. The developed color was measured at an absorbance of 450 nm (reference wavelength: 620 nm) on an Immuno Mini NJ-2300 (Cosmo Bio Co., Ltd., Japan).
smiles,measurement,value
"O=C1[O][Pt]2([NH]C3CCCCC3[NH]2)[O]C1=O [l-OHP, cis-[(1R, 2R)-1,2-cyclohexanediamine-N,N′][oxalato(2)-O,O′]platinum]",cytotoxicity LD50,> 8 µg/mL
